Experimental data from patent US20080287405A1, “Compositions and Methods Relating to Protein Kinase Inhibitors” (priority 2004, published 2008).
Where a name gives a salt, the structure may show the parent alone.

What was measured:
[1] = test system: FAK; test: TGF-β1-induced FAK phosphorylation in normal fibroblasts (Western immunoblot); type: cell-based, human; settings: TGF-β1 2 ng/ml, 10 μM drug co-treated, 16 h
Description: (§1) Cell lysates were then subjected to SDS-PAGE and immunoblotted with specific antibodies against phospho-S^473 Akt and phospho-Y^397 FAK; blots were stripped and re-probed for total Akt and FAK, respectively.
(§2) Research protocols involving human subjects received prior approval by the Institutional Review Board at the University of Michigan. […] Fibroblasts were also isolated from normal-appearing lung tissue sections surgically removed from patients undergoing evaluation for suspected lung cancer. Cells were cultured in medium consisting of Dulbecco's modified Eagle's medium (DMEM; GIBCO, Grand Island, N.Y.) supplemented with 10% fetal bovine serum (FBS; Sigma, St. Louis, Mo.), 100 U/ml penicillin/streptomycin (Sigma, St. Louis Mo.), and fungizone (GIBCO, Grand Island, N.Y.); medium was changed every two days. Passage 3-5 fibroblasts were plated on 60 mm cell culture dishes at a density of 5×10^5 cells/dish and incubated at 37° C. in 5% CO2-95% air. When cells reached 80% confluence, they were growth-arrested for 48 hours in DMEM with 0.01% FBS prior to treatment with/without TGF-β1.
(§3) Porcine-derived TGF-β1 was obtained from R&D Systems, Minneapolis, Minn. All other cell culture reagents were from Sigma, St Louis, Mo. […] Drugs were initially solubilized in DMSO to make a 30 mM “stock” concentration. […]

[2] = test system: PKB/Akt; test: Constitutive PKB/Akt phosphorylation in IPF fibroblasts (Western immunoblot); type: cell-based, human; settings: 16 h prior to cell lysis
Description: as §1, §2, §3

[3] = test system: PKB/Akt; test: TGF-β1-induced PKB/Akt phosphorylation in normal fibroblasts (Western immunoblot); type: cell-based, human; settings: TGF-β1 2 ng/ml, 10 μM drug co-treated, 16 h
Description: as §1, §2, §3

[4] = test system: α-SMA; test: α-SMA expression in lung fibroblasts isolated from drug-treated bleomycin-injured mice (Western); type: in vivo; settings: 6 mg/kg IP or oral gavage for 21 days
Description: C57BL/6J mice were given intratracheal (IT) saline or bleomycin on day 1. […] Fibroblasts were isolated from lung explants on day 14 and expanded in in vitro cell culture. Cells were lysed in RIPA buffer at passage 2 and 90% confluency. Cell lysates were subjected to sodium dodecyl sulfate polyacrylamide gel electrophoresis and immunoblotted with antibodies against α-SMA (a marker of myofibroblast differentiation), phospho-S^473 Akt, and phospho-Y^397 FAK.
Fibroblasts were isolated from lung explants on day 14 and expanded in in vitro cell culture, initially in the presence of 10% fetal bovine serum and then in the absence of serum for 24 h. Cell lysates were obtained and subjected to SDS-PAGE and immunoblotted with antibodies against the proteins indicated.
Mice were treated with Gleevec by IP injection (6 mg/kg) or oral gavage (6 mg/kg) for 21 days. Fibroblasts were isolated from lung explants and cell lysates subjected to SDS-PAGE and immunoblotted for α-SMA. Blots were stripped and re-probed for α-tubulin. Additionally, the effects of Gleevec on pro-fibrotic signaling of fibroblasts by TGF-α1. […]
To determine the result of systemic administration of AG1879 in stable modulation of signaling/phenotype of fibroblasts and myofibroblasts in vivo, fibroblasts isolated from lungs of bleomycin injured mice were analyzed. […]

[5] = test system: ERK-1/2 MAPK; test: Baseline ERK-1/2 MAPK phosphorylation in normal human lung fibroblasts (IMR-90); type: cell-based; settings: IMR-90, 24 h, doses indicated in FIG. 9
Method: (§4) Mice were treated with Gleevec by IP injection (6 mg/kg) or oral gavage (6 mg/kg) for 21 days. Fibroblasts were isolated from lung explants and cell lysates subjected to SDS-PAGE and immunoblotted for α-SMA. Blots were stripped and re-probed for α-tubulin. Additionally, the effects of Gleevec on pro-fibrotic signaling of fibroblasts by TGF-α1. Normal human lung fibroblasts (IMR-90) were stimulated ±TGF-â1 (2 ng/ml) Gleevec at the doses indicated for 24 h. Cell lysates were then subjected to SDS-PAGE and immunoblotted for specific antibodies to the proteins shown.
(§5) The present invention is not limited to a particular mechanism. Indeed, an understanding of the mechanism is not necessary to practice the present invention.

[6] = test system: α-SMA; test: α-SMA expression in normal human lung fibroblasts (IMR-90) ± TGF (Western); type: cell-based
Method: as §4
The present invention is not limited to a particular mechanism. Indeed, an understanding of the mechanism is not necessary to practice the present invention. […] Furthermore, these observations emphasize the importance of defining the modulation of fibroblast phenotypes/signaling both in vitro and in vivo.

[7] = test system: bleomycin-injured mice; test: Murine model of bleomycin-induced pulmonary fibrosis (lung collagen, histology); type: in vivo; settings: 6 mg/kg IP or oral gavage for 21 days
Description: Mice were given intratracheal bleomycin (BL) or saline (control). […] A) Lungs were harvested on day 14 following bleomycin injury and total lung collagen determined as described in “Methods”. […] B) Representative histopathology (hematoxylin and eosin staining, top panels; Masson's trichrome blue staining for collagen, bottom panels) of the lungs of mice intra-tracheally instilled with saline (control) or bleomycin (BL). […] Lungs were examined at day 14 following bleomycin injury.
Tissue sections were stained (H&E, mag 100×) 21 days following bleomycin and 14 days after treatment with NL-71-101.
B6129F2/J mice were purchased from Jackson Laboratories, Bar Harbor, Me., and housed under specific pathogen free conditions in enclosed filter top cages. Clean food and water was given ad libitum. The mice were handled and maintained using microisolator techniques with daily veterinarian monitoring. […]
Mice were euthanized by CO2 asphyxiation and perfused via the heart with 5 ml of normal saline. […] Following centrifugation, the pellet was resuspended in 1 ml of alkali reagent, vortexed to release the dye into solution, and 100 μl transferred to a microplate and absorbance measured at 540 nm. Values for experimental samples were calculated based on a standard curve of known concentrations of purified rat tail collagen. […]

[8] = test system: FAK; test: TGF-induced FAK phosphorylation in normal human lung fibroblasts (IMR-90); type: cell-based; settings: IMR-90, TGF 2 ng/ml, 24 h
Method: as §4, §5

[9] = test system: PKB/Akt; test: TGF-induced PKB/Akt phosphorylation in normal human lung fibroblasts (IMR-90); type: cell-based; settings: IMR-90, TGF 2 ng/ml, 24 h
Method: as §4, §5

Structure (SMILES)	inhibition of TGF-β1-induced FAK phosphorylation [1]	inhibition of constitutive PKB/Akt phosphorylation at 10 μM [2]	inhibition of TGF-β1-induced PKB/Akt phosphorylation [3]	expression of α-SMA in lung fibroblasts cultured from treated mice [4]	baseline phosphorylation of ERK-1/2 MAPK [5]	baseline α-SMA expression ([6]; IMR-90, 24 h, no TGF)	TGF-α1-induced α-SMA expression ([6]; IMR-90, TGF 2 ng/ml, 24 h)	efficacy as an anti-fibrotic agent [7]	TGF-α1-induced phosphorylation/activation of FAK [8]	TGF-α1-induced phosphorylation/activation of PKB/Akt [9]
Nc1ncnc2c1cnn2-c1ccccc1 [c/AG, 4-Amino-7-phenylpyrazol[3,4-d]pyramidine]	no effect	no effect	no effect	–	–	–	–	–	–	–
Cc1ccc(NC(=O)c2ccc(CN3CCN(C)CC3)cc2)cc1Nc1nccc(-c2cccnc2)n1 [Gleevec, imatinib mesylate]	–	–	–	enhanced expression	dose-dependently enhanced	modest reductions	does not inhibit	not to be effective	promoted/enhanced	promoted/enhanced
